The compounds below were run against T1, human GLP1R (Homo sapiens, UniProt P43220) (assay: Human GLP-1 receptor transfected cell assay (MRE/CRE-luciferase reporter gene, agonist activity)). Details: 6 h; concentration 1 μM; read-out: Activity (agonist), percentage of the activity of the control.
T1 construct: expressed in transfected cells; host or cells: CHO cells (ATCC), transient transfection with pCMV-human GLP1R
T1 sequence (P43220 24-463): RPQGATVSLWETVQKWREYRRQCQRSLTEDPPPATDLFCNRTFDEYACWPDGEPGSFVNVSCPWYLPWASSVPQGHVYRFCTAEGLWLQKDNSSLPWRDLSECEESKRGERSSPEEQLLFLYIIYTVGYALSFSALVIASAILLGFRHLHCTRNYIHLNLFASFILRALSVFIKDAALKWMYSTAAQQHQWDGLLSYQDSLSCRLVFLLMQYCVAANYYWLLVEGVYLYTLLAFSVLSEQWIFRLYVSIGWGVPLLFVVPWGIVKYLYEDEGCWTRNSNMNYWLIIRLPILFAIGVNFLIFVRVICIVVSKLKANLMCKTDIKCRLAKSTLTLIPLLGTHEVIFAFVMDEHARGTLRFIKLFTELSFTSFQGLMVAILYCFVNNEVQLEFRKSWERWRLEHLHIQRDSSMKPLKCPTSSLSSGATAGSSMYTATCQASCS
Assay type: cell-based
Procedure: The glucagon-like peptide I receptor (GLP1R) is a class B Gs-coupled membrane receptor, an agonist of which activates adenylate cyclase (AC) and elevates intracellular cAMP level. In turn, the high content of secondary messengers can activate the cAMP response element binding protein (CREB), which can translocate into nucleus to activate gene transcription.
A reporter gene based screening assay was established to measure the effect of a compound on GLP1R. In this assay, a compound was incubated with CHO cells transiently transfected with a human GLP1R plasmid and a multiple response element (MRE)/cAMP response element (CRE)-driven luciferase reporter plasmid. Once luciferase was induced by the compound, its specific substrate can be activated to produce light signal for measurement.
Materials used in this assay included: (i) cell line: Chinese hamster ovary (CHO) cells (ATCC); (ii) fetal bovine serum (FBS) (Biochrom Co.); (iii) culture medium: RPMI1640 (Invitrogen Co.) supplemented with 10% FBS; (iv) LIPOFECTAMINE™ 2000 Reagent (Invitrogen Co.); (v) plasmids: pCMV-human GLP1R and pGL3-1905 reporter plasmid; (vi) GLP1 (7-36 amide) peptide (Sigma Co.); and (vii) BRIGHT-GLO™ Luciferase Assay System (Promega Co.).
Instruments used in this assay included: (i) Form a carbon dioxide incubator (Thermo Form a Co.); and (ii) Flexstation 3 (Molecular Device Co.).
Before transfection, CHO cells were plated into a 6-well culture plate at 800,000/2 mL/well, and cultured at 37° C. in 5% CO2 overnight. On the transfection day, cells were transfected with receptor plasmid and reporter plasmid using LIPOFECTAMINE™ 2000 reagent. After 6-hour transfection, cells were digested and seeded into 96-well plates at 20,000/100 μL/well. After 14-16 hour incubation, transfected cells were washed with 100 μL serum-free RPMII 640 medium first, and then added 50 μL of the culture medium. The GLP-1 standard and test compounds were respectively diluted to a series of concentrations, which were then added into the above 96-well culture plate at 50 μL/well. The cells were incubated at 37° C. in 5% CO2 for 6 hrs. The activity of luciferase was detected using BRIGHT-GLO™ Luciferase Analytic System, and the reading was performed with a Flexstation3 plate reader machine.
Work on `CC(C)(C)OC(=O)Nc1ccc(-c2nc(-c3ccc(CC(NC(=O)N4CCN(c5ccc(Cl)cc5)CC4)C(=O)O)cc3F)no2)cc1` (centres unmarked) [Compound 4K] yielded an activation at 1 µM greater than 60%. `CC(C)(C)OC(=O)Nc1ccc(-c2nc(-c3ccc(CC(NC(=O)Nc4cc(-c5ccc(F)cc5)on4)C(=O)O)cc3F)no2)cc1` (centres unmarked) [Compound 4S] gave an activation at 1 µM of 40 to 60%. For `Cc1ccc(-c2ccc(NC(=O)NC(Cc3ccc(-c4noc(-c5ccc(NC(=O)OC(C)(C)C)cc5)n4)c(F)c3)C(=O)O)nc2)cc1` (centres unmarked) [Compound 4T], the activation at 1 µM was 40 to 60%. In the case of `CC(C)(C)OC(=O)Nc1ccc(-c2nc(-c3ccc(CC(NC(=O)Cc4ccc(-c5ccc(C(F)(F)F)cc5)cc4)C(=O)O)cc3F)no2)cc1` (centres unmarked) [Compound 5I], the activation at 1 µM is reported as greater than 60%. `Cc1ccc(-c2cccc(C(=O)NC(Cc3ccc(-c4noc(-c5ccc(NC(=O)OC(C)(C)C)cc5)n4)nc3)C(=O)O)c2)cc1` (centres unmarked) [Compound 5K] gave an activation at 1 µM greater than 60%. `Cc1ccc(-c2ccc(C(=O)NC(Cc3ccc(-c4noc(-c5ccc(NC(=O)OC(C)(C)C)cc5)n4)c(F)c3F)C(=O)O)o2)cc1F` (centres unmarked) [Compound 5M] gave an activation at 1 µM greater than 60%. In the case of `Cc1ccc(-c2ccc(C(=O)NC(Cc3ccc(-c4ccc(-c5ccc(NC(=O)OC(C)(C)C)cc5)s4)c(F)c3)C(=O)O)o2)cc1` (centres unmarked) [Compound 5N], the activation at 1 µM is reported as greater than 60%.

Same assay, conditions: 6 h; concentration 3 μM; read-out: Activity (agonist), percentage of the activity of the control
`Cc1cccnc1N1CCCN(C(=O)NC(Cc2ccc(-c3noc(-c4ccc(NC(=O)OC(C)(C)C)cc4)n3)c(F)c2)C(=O)O)CC1` (centres unmarked) [Compound 4R] gave an activation at 3 µM of 20 to 40%. `CC(C)(C)OC(=O)Nc1ccc(-c2nc(-c3ccc(CC(NC(=O)Nc4ccc(C#N)cc4)C(=O)O)cc3F)no2)cc1` (centres unmarked) [Compound 4U] was tested, and the activation at 3 µM was 40 to 60%. `CC(C)(C)OC(=O)Nc1ccc(-c2nc(-c3ccc(CC(NC(=O)Nc4ccc(C(C)(C)C)cc4)C(=O)O)cc3F)no2)cc1` (centres unmarked) [Compound 4V] showed an activation at 3 µM of 40 to 60%. `CC(C)(C)OC(=O)Nc1ccc(-c2nc(-c3ccc(CC(NC(=O)Nc4ccc(N5CCCCC5)cc4)C(=O)O)cc3F)no2)cc1` (centres unmarked) [Compound 4Y] was tested, and the activation at 3 µM was 20 to 40%. In the case of `Cc1ccc(-c2cccc(NC(=O)NC(Cc3ccc(-c4noc(-c5ccc(NC(=O)OC(C)(C)C)cc5)n4)c(F)c3)C(=O)O)c2)cc1` (centres unmarked) [Compound 5A], the activation at 3 µM is reported as 40 to 60%. `Cn1nc(C(C)(C)C)cc1NC(=O)NC(Cc1ccc(-c2noc(-c3ccc(NC(=O)OC(C)(C)C)cc3)n2)c(F)c1)C(=O)O` (centres unmarked) [Compound 5B] gave an activation at 3 µM of 40 to 60%. For `CC(C)(C)OC(=O)Nc1ccc(-c2nc(-c3ccc(CC(NC(=O)Nc4ccc(-c5ccccc5F)cn4)C(=O)O)cc3F)no2)cc1` (centres unmarked) [Compound 5C], the activation at 3 µM was greater than 60%. In the case of `CC(C)(C)OC(=O)Nc1ccc(-c2nc(-c3ccc(CC(NC(=O)N4CCC(c5ccccc5)C4)C(=O)O)cc3F)no2)cc1` (centres unmarked) [Compound 5D], the activation at 3 µM is reported as greater than 60%.

Same assay, conditions: 6 h; concentration 3.16 μM; read-out: Activity (agonist), percentage of the activity of the control
Compound `COc1ccc(N2CCN(C(=O)NC(Cc3ccc(-c4noc(-c5ccc(NC(=O)OC(C)(C)C)cc5)n4)c(F)c3)C(=O)O)CC2)cc1` (centres unmarked) [Compound 4J] has an activation at 3.16 µM of 40 to 60%. Work on `CC(C)(C)OC(=O)Nc1ccc(-c2nc(-c3ccc(CC(NC(=O)Nc4ccnc(Cl)c4)C(=O)O)cc3F)no2)cc1` (centres unmarked) [Compound 4L] yielded an activation at 3.16 µM of 40 to 60%. Compound `Cc1ccc(NC(=O)NC(Cc2ccc(-c3noc(-c4ccc(NC(=O)OC(C)(C)C)cc4)n3)c(F)c2)C(=O)O)cc1` (centres unmarked) [Compound 4M] has an activation at 3.16 µM greater than 60%. `CC(C)(C)OC(=O)Nc1ccc(-c2nc(-c3ccc(CC(NC(=O)Nc4ccc(Br)nc4)C(=O)O)cc3F)no2)cc1` (centres unmarked) [Compound 4N] was tested, and the activation at 3.16 µM was 20 to 40%. In the case of `CC(C)(C)OC(=O)Nc1ccc(-c2nc(-c3ccc(CC(NC(=O)N4CCCN(c5ccc(F)cn5)CC4)C(=O)O)cc3F)no2)cc1` (centres unmarked) [Compound 4Q], the activation at 3.16 µM is reported as greater than 60%. `Cc1ccc(-c2ccc(C(=O)NC(Cc3ccc(-c4noc(-c5ccc(NC(=O)OC(C)(C)C)cc5)n4)cc3C(F)(F)F)C(=O)O)o2)cc1` (centres unmarked) [Compound 5J] showed an activation at 3.16 µM greater than 60%. Work on `CC(C)(C)OC(=O)Nc1ccc(-c2ccc(-c3ccc(CC(NC(=O)c4ccc(-c5ccc(F)cc5)o4)C(=O)O)cc3F)s2)cc1` (centres unmarked) [Compound 5O] yielded an activation at 3.16 µM greater than 60%. Work on `CC(C)(C)OC(=O)Nc1ccc(/C=C/c2ccc(CC(NC(=O)c3ccc(NC(=O)OC(C)(C)C)cc3)C(=O)O)cc2F)cc1` (centres unmarked) [Compound 5R] yielded an activation at 3.16 µM of 40 to 60%.

Same assay, conditions: 6 h; concentration 5 μM; read-out: Activity (agonist), percentage of the activity of the control
Compound `Cc1ccc(N2CCN(CC(=O)NC(Cc3ccc(-c4noc(-c5ccc(NC(=O)OC(C)(C)C)cc5)n4)c(F)c3)C(=O)O)CC2)cc1` (centres unmarked) [Compound 5H] has an activation at 5 µM greater than 60%.

Same assay, conditions: 6 h; concentration 10 μM; read-out: Activity (agonist), percentage of the activity of the control
Compound `Cc1ccc(-c2ccc(NC(=O)NC(Cc3ccc(-c4noc(-c5ccc(NC(=O)OC(C)(C)C)cc5)n4)c(F)c3)C(=O)O)cn2)cc1` (centres unmarked) [Compound 4O] has an activation at 10 µM greater than 60%. In the case of `CC(C)(C)OC(=O)Nc1ccc(-c2nc(-c3ccc(CC(NC(=O)N4CCCN(c5ccc(C#N)cc5)CC4)C(=O)O)cc3F)no2)cc1` (centres unmarked) [Compound 4P], the activation at 10 µM is reported as greater than 60%. `CC(C)c1ccc(NC(=O)NC(Cc2ccc(-c3noc(-c4ccc(NC(=O)OC(C)(C)C)cc4)n3)c(F)c2)C(=O)O)cc1` (centres unmarked) [Compound 4W] was tested, and the activation at 10 µM was 40 to 60%. `CC(C)(C)OC(=O)Nc1ccc(-c2nc(-c3ccc(CC(NC(=O)Nc4ccc(-c5ccc(F)cc5)cn4)C(=O)O)cc3F)no2)cc1` (centres unmarked) [Compound 4X] showed an activation at 10 µM greater than 60%. `Cc1ccc(-c2ccc(NC(=O)NC(Cc3ccc(-c4noc(-c5ccc(NC(=O)OC(C)(C)C)cc5)n4)c(F)c3)C(=O)O)nc2)cc1Cl` (centres unmarked) [Compound 4Z] showed an activation at 10 µM of 40 to 60%. `Cc1ccc(-c2ccc(C(=O)NC(Cc3ccc(C#Cc4ccc(NC(=O)OC(C)(C)C)cc4)c(F)c3)C(=O)O)o2)cc1` (centres unmarked) [Compound 5E] gave an activation at 10 µM greater than 60%. Compound `Cc1ccc(-c2ccc(NC(=O)NC(Cc3ccc(-c4noc(-c5ccc(NC(=O)OC(C)(C)C)cc5)n4)c(F)c3)C(=O)O)nc2)cc1F` (centres unmarked) [Compound 5F] has an activation at 10 µM greater than 60%. `CC(=O)N(Cc1ccc(-c2ccc(C)cc2)o1)C(Cc1ccc(-c2noc(-c3ccc(NC(=O)OC(C)(C)C)cc3)n2)c(F)c1)C(=O)O` (centres unmarked) [Compound 5G] showed an activation at 10 µM greater than 60%. Work on `Cc1ccc(-c2ccc(C(=O)NC(Cc3cc(F)c(-c4noc(-c5ccc(NC(=O)OC(C)(C)C)cc5)n4)c(F)c3)C(=O)O)o2)cc1` (centres unmarked) [Compound 5L] yielded an activation at 10 µM greater than 60%. `Cc1ccc(-c2ccc(C(=O)N[C@H](Cc3ccc(-c4cc(-c5ccc(NC(=O)OC(C)C)cc5)[nH]n4)c(F)c3)C(=O)O)o2)cc1` [Compound 5P] was tested, and the activation at 10 µM was greater than 60%. Work on `Cc1ccc(-c2ccc(C(=O)N[C@H](Cc3ccc(-c4cn(-c5ccc(NC(=O)OC(C)C)cc5)nn4)c(F)c3)C(=O)O)o2)cc1` [Compound 5Q] yielded an activation at 10 µM greater than 60%. `Cc1ccc(-c2ccc(C(=O)NC(Cc3ccc(NC(=O)c4cccc(Br)c4)c(F)c3)C(=O)O)o2)cc1` (centres unmarked) [Compound 5S] gave an activation at 10 µM greater than 60%. Work on `Cc1ccc(-c2ccc(C(=O)N[C@H](Cc3ccc(/C=C/c4ccc(NC(=O)OC(C)(C)C)cc4)c(F)c3)C(=O)O)o2)cc1` [Compound 5T] yielded an activation at 10 µM greater than 60%. `Cc1ccc(-c2cccc(C(=O)NC(Cc3ccc(-c4noc(C(=O)N5CCC(C)CC5)n4)c(F)c3)C(=O)O)c2)cc1` (centres unmarked) [Compound 5U] showed an activation at 10 µM greater than 60%. `COc1cc2c(cc1OC(=O)c1ccc(NC(=O)OC(C)(C)C)cc1)CN(S(=O)(=O)c1ccc(C)cc1)C(C(=O)O)C2` (centres unmarked) [Compound 5V] was tested, and the activation at 10 µM was greater than 60%. In the case of `COc1cc2c(cc1OC(=O)c1ccc(NC(=O)OC(C)(C)C)cc1)CN(C(=O)c1ccc(-c3ccc(C)cc3)o1)C(C(=O)O)C2` (centres unmarked) [Compound 5W], the activation at 10 µM is reported as greater than 60%. `CC(C)(C)OC(=O)Nc1ccc(C(=O)Oc2ccc3c(c2)CN(C(=O)c2ccc(NC(=O)OC(C)(C)C)cc2)C(C(=O)O)C3)cc1` (centres unmarked) [Compound 5X] was tested, and the activation at 10 µM was greater than 60%.
